Structures can show the parent of a compound that is named as a salt.
Target: MASP-2 CCP2-SP (Homo sapiens (Human), UniProt O00187)
Assay: MASP-2 co-crystallization, X-ray crystallography and structure analysis (H-bonds, van der Waals contacts);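 as to Ligand-pharmacophore element distance, pharmacophore element C2: distance from averaged pharmacophore element to bound ligand; missing value means element absent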;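 as to Ligand-pharmacophore element distance, pharmacophore element C3: distance from averaged pharmacophore element to bound ligand; missing value means element absent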;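 as to Ligand-pharmacophore element distance, pharmacophore element C4: distance from averaged pharmacophore element to bound ligand; missing value means element absent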;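 as to Ligand-pharmacophore element distance, pharmacophore element C5: distance from averaged pharmacophore element to bound ligand; missing value means element absent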
Parameters: van der Waals contact distance, MASP-2 HIS 483 atom CD2 / van der Waals contact distance, MASP-2 HIS 483 atom NE2 / van der Waals contact distance, SER 654 C to compound atom / van der Waals contact distance, SER 654 O to compound atom / van der Waals contact distance, TRP 655 C to compound atom / van der Waals contact distance, MASP-2 GLY 528 atom CA / van der Waals contact distance TRP 655 atom CZ3 / van der Waals contact distance TRP 655 atom N / van der Waals contact distance TRP 655 atom CE3 / van der Waals contact distance GLY 656 atom C / van der Waals contact distance GLY 656 atom CA / van der Waals contact distance GLY 656 atom O / van der Waals contact distance, MASP-2 TYR 607 atom CD1 / van der Waals contact distance, MASP-2 PRO 606 atom O / d(C3,CA1) / d(CA1,N1)2 / d(H4,O1) / d(H4,O2) / d(O1,O2) / d(CA1,O2) / d(CA6,O1) / d(CA6,O2) / d(CA1,C5) / d(O2,H3) / d(N2,C2) / d(CA5,N2) / d(N2,C4) / d(N2,C6) / d(N2,CA3) / d(N2,O3) / d(O4,H2): unit not given beside the values
Conditions: for Ligand-pharmacophore element distance, pharmacophore element C2 / Ligand-pharmacophore element distance, pharmacophore element C3 / Ligand-pharmacophore element distance, pharmacophore element C4 / Ligand-pharmacophore element distance, pharmacophore element C5 / Ligand-pharmacophore element distance, pharmacophore element C6 / Ligand-pharmacophore element distance, pharmacophore element C7 / Ligand-pharmacophore element distance, pharmacophore element CA1 / Ligand-pharmacophore element distance, pharmacophore element CA2 / Ligand-pharmacophore element distance, pharmacophore element CA3 / Ligand-pharmacophore element distance, pharmacophore element CA4 / Ligand-pharmacophore element distance, pharmacophore element CA5 / Ligand-pharmacophore element distance, pharmacophore element CA6: Table A4-1; for Pharmacophore torsion angle a(O1, O2, N2, CA2): Table A7-2
Summary of the method: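 E. coli-expressed CCP2-SP (±6His); apo crystals soaked 1–2× in inhibitor-containing crystallization solution; optional 20% glycerol cryoprotection, LN2 flash-cool; synchrotron data at 1.0 wavelength; MR using 1Q3X portions, partial refinement; single pose analysed when several seen.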

[1] = Table A5-1 pharmacophore: distance between elements, S2/S1 region
[2] = Table A5-2 pharmacophore distance, S3/S4 region
[3] = Table A7-1, between pharmacophore elements of the bound compound
[4] = between pharmacophore elements of the bound compound
[5] = Table A8-6, nearest protein atom in cell to the left

MASP-2 CCP2-SP, sequence (O00187 445-686): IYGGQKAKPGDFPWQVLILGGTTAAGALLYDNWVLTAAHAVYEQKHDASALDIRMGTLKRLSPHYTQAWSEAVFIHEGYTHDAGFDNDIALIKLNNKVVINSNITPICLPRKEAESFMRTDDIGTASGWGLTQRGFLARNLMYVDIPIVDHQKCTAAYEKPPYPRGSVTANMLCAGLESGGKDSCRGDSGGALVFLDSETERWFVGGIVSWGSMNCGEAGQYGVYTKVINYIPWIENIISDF
MASP-2 CCP2-SP, sequence (O00187 364-432 partner): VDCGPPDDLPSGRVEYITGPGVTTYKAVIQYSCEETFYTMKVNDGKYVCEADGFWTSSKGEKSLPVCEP

C[C@H](NC(=O)[C@H](N)CCCc1ccccc1)C(=O)NCc1ccc(C(=N)N)cc1.Cl.Cl [1042_1]
Ligand-pharmacophore element distance, pharmacophore element C2: 1.81
Ligand-pharmacophore element distance, pharmacophore element C3: 0
Ligand-pharmacophore element distance, pharmacophore element C4: 0
Ligand-pharmacophore element distance, pharmacophore element C5: 0
Ligand-pharmacophore element distance, pharmacophore element C6: 0
Ligand-pharmacophore element distance, pharmacophore element C7: 0
Ligand-pharmacophore element distance, pharmacophore element CA1: 0.87
Ligand-pharmacophore element distance, pharmacophore element CA2: 0.48
Ligand-pharmacophore element distance, pharmacophore element CA3: 0
Ligand-pharmacophore element distance, pharmacophore element CA4: 0
Ligand-pharmacophore element distance, pharmacophore element CA5: 0
Ligand-pharmacophore element distance, pharmacophore element CA6: 0
Ligand-pharmacophore element distance, pharmacophore element H1 (Table A4-2, element H1): 0
Ligand-pharmacophore element distance, pharmacophore element H2 (Table A4-2, element H2): 0
Ligand-pharmacophore element distance, pharmacophore element H3 (Table A4-2, element H3): 5.4
Ligand-pharmacophore element distance, pharmacophore element H4 (Table A4-2, element H4): 3.08
Ligand-pharmacophore element distance, pharmacophore element N1 (Table A4-2, element N1): 1.3
Ligand-pharmacophore element distance, pharmacophore element N2 (Table A4-2, element N2): 0.56
Ligand-pharmacophore element distance, pharmacophore element O1 (Table A4-2, element O1): 2.71
Ligand-pharmacophore element distance, pharmacophore element O2 (Table A4-2, element O2): 0.67
Ligand-pharmacophore element distance, pharmacophore element O3 (Table A4-2, element O3): 0
Ligand-pharmacophore element distance, pharmacophore element O4 (Table A4-2, element O4): 0
d(CA1,N1) [1]: 3.58
d(CA1,O1) [1]: 3.98
d(CA1,O2) [1]: 4.13
d(H4,O1) [1]: 3.35
d(H4,O2) [1]: 3.67
d(O1,O2) [1]: 3.40
d(N2,C2) [2]: 3.42
d(N2,CA2) [2]: 6.20
d(O2,H3) [2]: 5.43
d(O2,N2) [2]: 2.64
a(CA1, O1, O2) (Table A6-1 pharmacophore angle): 117.21
a(O1, O2, H4) (Table A6-1 pharmacophore angle): 122.15
A(N1, CA1, O1) a) (Table A6-1 pharmacophore angle, all compounds with protonatable center N1 except Methyl-amino-pyridine): 158.11
a(O1, O2, H3) (Table A6-2 pharmacophore angle): 149.96
a(O1, O2, N2) (Table A6-2 pharmacophore angle): 170.80
a(O2, N2, C2) (Table A6-2 pharmacophore angle): 140.47
a(O2, N2, CA2) (Table A6-2 pharmacophore angle): 155.50
Pharmacophore torsion angle a(H4, O1, O2, H3) [3]: −19.99
Pharmacophore torsion angle a(H4, O1, O2, N2) [3]: 68.67
Pharmacophore torsion angle a(N1, CA1, O2, H4) [3]: 9.10
Pharmacophore torsion angle a(O1, H4, O2, CA1) [3]: −160.50
Pharmacophore torsion angle a(O1, O2, N2, C2) [3]: 115.48
Pharmacophore torsion angle a(O1, O2, N2, CA2) [4]: 136.01
Pharmacophore protein distance to MET_658 (first MET_658 column) (Table A8-6, 6th residue column, nearest protein atom in cell to the left): 2.06
Pharmacophore protein distance to MET_658 (second MET_658 column) (Table A8-6, 9th residue column, nearest protein atom in cell to the left): 3.40
Pharmacophore protein distance to GLY_528 [5]: 4.67
Pharmacophore protein distance to PHE_529 [5]: 3.84
Pharmacophore protein distance to PRO_608 [5]: 3.46
Pharmacophore protein distance to SER_611 [5]: 2.14
Pharmacophore protein distance to TRP_655 (Table A8-6, pharmacophore elements C6, CA3, O3, H1, nearest protein atom in cell to the left): 3.28

C[C@H](NC(=O)[C@H]1C[C@H](Cc2ccccc2)CN1)C(=O)NCc1cc(Cl)ccc1-n1cnnn1 [compound 1371, (2R,4S)-4-Benzyl-N—((S)-1-((5-chloro-2-(1H-tetrazol-1-yl)benzyl)amino)-1-oxopropan-2-yl)pyrrolidine-2-carboxamide Hydrochloride]
H-bond distance to MASP-2 GLY 656 atom N (Table A1 (H-Bonds), GLY 656 N): 3.18
H-bond distance to MASP-2 GLY 656 atom O (Table A1 (H-Bonds), GLY 656 O): 2.75
H-bond distance to MASP-2 SER 654 atom O (Table A1 (H-Bonds), SER 654 O): 2.86
H-bond distance to MASP-2 SER 657 atom O (Table A1 (H-Bonds), SER 657 O): 2.96
van der Waals contact distance, MASP-2 HIS 483 atom CD2 (Table A2-1): 3.55
van der Waals contact distance, MASP-2 HIS 483 atom NE2 (Table A2-1): 3.61
van der Waals contact distance, MASP-2 GLY 528 atom CA (Table A2-2): 3.8
van der Waals contact distance, MASP-2 PHE 529 atom CD2 (Table A2-3): 3.86
van der Waals contact distance, MASP-2 PHE 529 atom CE2 (Table A2-3): 3.89
van der Waals contact distance, MASP-2 amino acid atom to compound atom (Table A2-9 second part, ARG 630, AA atoms N, NE, NH1): 3.44
van der Waals contact distance, SER 654 C to compound atom (Table A2-11): 3.9
van der Waals contact distance GLY 656 atom C (Table A2-13, MASP-2 GLY 656 C): 3.84
van der Waals contact distance, MASP-2 amino acid atom to compound atom (Table A2 section before Table A2-8): 3.76
Ligand-pharmacophore element distance, pharmacophore element C2: 0
Ligand-pharmacophore element distance, pharmacophore element C3: 0
Ligand-pharmacophore element distance, pharmacophore element C4: 0
Ligand-pharmacophore element distance, pharmacophore element C5: 0.48
Ligand-pharmacophore element distance, pharmacophore element C6: 0
Ligand-pharmacophore element distance, pharmacophore element C7: 0
Ligand-pharmacophore element distance, pharmacophore element CA1: 0.58
Ligand-pharmacophore element distance, pharmacophore element CA2: 0.46
Ligand-pharmacophore element distance, pharmacophore element CA3: 0
Ligand-pharmacophore element distance, pharmacophore element CA4: 0
Ligand-pharmacophore element distance, pharmacophore element CA5: 0
Ligand-pharmacophore element distance, pharmacophore element CA6: 0
d(CA1,O1) [1]: 3.46
d(CA1,O2) [1]: 3.72
d(H4,O1) [1]: 3.13
d(H4,O2) [1]: 3.66
d(O1,O2) [1]: 3.25
d(N2,CA2) [2]: 5.90
d(O2,H3) [2]: 1.96
d(O2,N2) [2]: 2.79
a(CA1, O1, O2) (Table A6-1 pharmacophore angle): 121.03
a(O1, O2, H4) (Table A6-1 pharmacophore angle): 123.31
a(O1, O2, H3) (Table A6-2 pharmacophore angle): 136.64
a(O1, O2, N2) (Table A6-2 pharmacophore angle): 146.93
a(O2, N2, CA2) (Table A6-2 pharmacophore angle): 155.86
Pharmacophore torsion angle a(H4, O1, O2, H3) [3]: −165.12
Pharmacophore torsion angle a(H4, O1, O2, N2) [3]: −174.11
Pharmacophore torsion angle a(O1, H4, O2, CA1) [3]: −68.15
Pharmacophore torsion angle a(O1, O2, N2, CA2) [4]: 136.54
